Active and inactive are the calls of the source. The calls are words filed in the database; no cut-off is given here.

The IC50 is the point on the concentration scale where inhibition reaches its midpoint. Usually inhibition stands for the percentage by which the read-out fell short of the control.

Assay [1] has as its system HeLa. The assay can be described thus: cells. The note with it: Homo sapiens, 48 h.
Description: Cytotoxicity against human HeLa cells after 48 hrs by MTT assay
Another assay relates to B16. The experiment in a line: Cytotoxicity against […] cells after 48 hrs by MTT assay. The class given is functional, cell-based. The settings on record: Mus musculus, B16, 48 h.
For a further assay, the system named is HT-29. The experiment in a line: Cytotoxicity against human HT-29 cells after 48 hrs by MTT assay. The class given is functional, cell-based. The note with it: HT-29, 48 h. On the technique in general: Tetrazolium assays rely on reduction of a dye to a coloured formazan, in cell work by metabolically active cells.
Another assay has as its system MCF7. The experiment in a line: cells. The note with it: Homo sapiens, MCF7, 48 h.
The test system of assay [2] is HeLa. The experiment in a line: Induction of apoptosis in human HeLa cells assessed as caspase-3 activation at 0.5 uM after 48 hrs by fluorimetric method relative to control. The class given is functional.
The species named for a further assay is Sus scrofa. The assay can be described thus: Inhibition of porcine brain tubulin polymerization at 3 uM after 1 hr by fluorescence assay relative to control.
Assay [3] has as its system HeLa. The assay can be described thus: Cell cycle arrest in human HeLa cells assessed as accumulation at G2/M phase at 0.5 uM after 48 hrs by propidium iodide staining based flow cytometry (reference value: 19.3%). The class given is functional.
Assay [4] deals with HeLa. The assay can be described thus: Cell cycle arrest in human HeLa cells assessed as accumulation at G1 phase at 0.5 uM after 48 hrs by propidium iodide staining based flow cytometry (reference value: 62.5%). The class given is functional.
The subject of assay [5] is HeLa. The experiment in a line: Cell cycle arrest in human HeLa cells assessed as accumulation at sub-G1 phase at 0.5 uM after 48 hrs by propidium iodide staining based flow cytometry (reference value: 0.9%). The class given is functional. In general terms: In flow cytometry, cells or beads pass a laser one at a time.
Assay [6] concerns HeLa. The experiment in a line: Cell cycle arrest in human HeLa cells assessed as accumulation at S phase at 0.5 uM after 48 hrs by propidium iodide staining based flow cytometry (reference value: 11.3%). The class given is functional.
Assay [7] deals with HeLa. The assay can be described thus: Induction of apoptosis in human HeLa cells assessed as nuclear fragmentation at 0.5 uM after 48 hrs by Hoechst 33342 staining based fluorescent microscopic method. The class given is functional, cell-based.
The next assay deals with Tubulin (Homo sapiens) (UniProt P68371+Q9H4B7+P0DPH7+P68366+Q13509+Q71U36+P04350+Q3ZCM7+P07437+P68363+Q9BQE3+Q6PEY2+Q13885+Q9BVA1+Q9BUF5). The assay can be described thus: Inhibition of tubulin polymerization in human HeLa cells assessed as disrupted microtubule organization at 0.5 uM after 48 hrs by immunohistochemical analysis. The class given is cell-based.
Assay [8] deals with HeLa. The experiment in a line: Induction of apoptosis in human HeLa cells assessed as […] condensation at 0.5 uM after 48 hrs by Hoechst 33342 staining based fluorescent microscopic method. The class given is functional, cell-based.

Description for MCF7: Cytotoxicity against human MCF7 cells after 48 hrs by MTT assay

Regarding `COc1cc([C@@H]2c3cc4c(cc3[C@@H](NC(=O)Cn3cc(-c5ccccn5)nn3)[C@H]3COC(=O)[C@H]23)OCO4)cc(OC)c1OC`, the IC50 in the assay on HeLa [1] was 23.6 µM; with B16 it was 19.5 µM; with HT-29 it was 18.4 µM; with MCF7, 14.5 µM.

Take `COc1cc([C@@H]2c3cc4c(cc3[C@@H](NC(=O)Cn3cc(-c5ccccc5)nn3)[C@H]3COC(=O)[C@H]23)OCO4)cc(OC)c1OC`: the 50% inhibitory concentration (IC50) with HeLa [1] worked out at 19.6 µM; in the assay on B16, 21.5 µM; with HT-29, 20.1 µM; in the assay on MCF7 it was 8.1 µM.

As to `COc1cc([C@@H]2c3cc4c(cc3[C@H](O)[C@H]3COC(=O)[C@H]23)OCO4)cc(OC)c1OC` [PODOFILOX], the half-inhibitory concentration (IC50) turned out to be 2.36 µM in the assay with HeLa [1], 2.12 µM with B16, 1.26 µM in the assay with HT-29 and 3.75 µM in the assay with MCF7. The outcome in the assay with HeLa [2] was Active. In the assay listed under Sus scrofa, this molecule returned an inhibition of 50.2%.

Regarding `COc1cc([C@@H]2c3cc4c(cc3[C@@H](NC(=O)Cn3cc(CCC5C(=O)c6ccccc6C5=O)nn3)[C@H]3COC(=O)[C@H]23)OCO4)cc(OC)c1OC`, the IC50 with HeLa [1] was determined as 2.6 µM; in the assay on B16 it was 14.7 µM; in the assay on HT-29, 18.5 µM; in the assay with MCF7 it was 7.2 µM.

Turning to `COc1cc([C@@H]2c3cc4c(cc3[C@@H](NC(=O)Cn3cc(-c5cccc(N)c5)nn3)[C@H]3COC(=O)[C@H]23)OCO4)cc(OC)c1OC`, the concentration for half-maximal inhibition (IC50) with HeLa [1] was 25.4 µM; in the assay on B16, 22.5 µM; with HT-29 it was 15.6 µM; in the assay on MCF7 it was 21.9 µM.

Turning to `COc1ccc2cc(-c3cn(CC(=O)N[C@@H]4c5cc6c(cc5[C@@H](c5cc(OC)c(OC)c(OC)c5)[C@H]5C(=O)OC[C@@H]54)OCO6)nn3)ccc2c1`, the IC50 was determined as 15.4 µM in the assay with HeLa [1], 14.3 µM in the assay on B16, 13.6 µM in the assay with HT-29 and 6.9 µM in the assay on MCF7.

Consider `COc1cc([C@@H]2c3cc4c(cc3[C@@H](O[C@@H]3O[C@@H]5CO[C@@H](C)O[C@H]5[C@H](O)[C@H]3O)[C@H]3COC(=O)[C@H]23)OCO4)cc(OC)c1O` [ETOPOSIDE], for which the IC50 came to 2.24 µM with HeLa [1], 1.85 µM in the assay on B16, 1.98 µM in the assay with HT-29 and 1.36 µM in the assay on MCF7.

As to `COc1cc([C@@H]2c3cc4c(cc3[C@@H](NC(=O)Cn3cc(-c5ccc(C)cc5)nn3)[C@H]3COC(=O)[C@H]23)OCO4)cc(OC)c1OC`, the half-inhibitory concentration (IC50) turned out to be 16.8 µM in the assay on HeLa [1], 23.5 µM in the assay with B16, 22.5 µM in the assay on HT-29 and 17.1 µM in the assay with MCF7.

For the molecule `COc1cc([C@@H]2c3cc4c(cc3[C@@H](NC(=O)Cn3cc(-c5cncn5C)nn3)[C@H]3COC(=O)[C@H]23)OCO4)cc(OC)c1OC`, the IC50 with HeLa [1] is 2.3 µM; in the assay with B16 it was 10.8 µM; with HT-29 it was 10.6 µM; in the assay on MCF7, 22.4 µM.

For the molecule `COc1cc([C@@H]2c3cc4c(cc3[C@@H](NC(=O)Cn3cc(-c5ccc(C(C)(C)C)cc5)nn3)[C@H]3COC(=O)[C@H]23)OCO4)cc(OC)c1OC`, the IC50 in the assay with HeLa [1] was 0.9 µM; in the assay with B16 it was 10.6 µM; in the assay with HT-29, 18.6 µM; in the assay with MCF7, 11.3 µM. For the same molecule, the Activity in the assay with HeLa [3] came to 63.3%; with HeLa [4], 12.5%; in the assay with HeLa [5], 0.2%; in the assay on HeLa [6], 10.1%. In the assay on HeLa [2], the “fold change (FC)” value is listed as 4 - 6. Further, the outcome in the assay on HeLa [7] and in the assay with HeLa [8] was Active. For the same molecule, at Tubulin (Homo sapiens), the inhibition result is “Active”. Also, in the assay filed under Sus scrofa, the inhibition amounted to 46.4%.

In the case of `COc1cc([C@@H]2c3cc4c(cc3[C@@H](NC(=O)Cn3cc(-c5ccc(Br)cc5)nn3)[C@H]3COC(=O)[C@H]23)OCO4)cc(OC)c1OC`, the half-maximal inhibitory concentration (IC50) in the assay on HeLa [1] stood at 0.07 µM; in the assay with B16, 10.1 µM; with HT-29, 0.1 µM; in the assay on MCF7 it was 0.9 µM. The Activity in the assay on HeLa [3] was determined as 62.7%; in the assay on HeLa [4] it was 13.9%; in the assay on HeLa [5], 0.1%; in the assay with HeLa [6], 10.5%. Also, the “fold change (FC)” value in the assay with HeLa [2] is reported as 4 - 6. Moreover, the outcome in the assay on HeLa [7] and in the assay with HeLa [8] was Active. Moreover, the inhibition entry on Tubulin (Homo sapiens) was “Active”. Also, the inhibition in the assay filed under Sus scrofa turned out to be 48.5%.

`COc1ccc(-c2cn(CC(=O)N[C@@H]3c4cc5c(cc4[C@@H](c4cc(OC)c(OC)c(OC)c4)[C@H]4C(=O)OC[C@@H]43)OCO5)nn2)cc1OC`: the IC50 was 17.9 µM in the assay on HeLa [1], 22.4 µM in the assay on B16, 13.9 µM in the assay with HT-29 and 15.8 µM in the assay on MCF7.

Turning to `COc1cc([C@@H]2c3cc4c(cc3[C@@H](NC(=O)Cn3cc(-c5cccs5)nn3)[C@H]3COC(=O)[C@H]23)OCO4)cc(OC)c1OC`, the IC50 in the assay with HeLa [1] amounted to 6.5 µM; with B16 it was 18.2 µM; with HT-29, 19.5 µM; in the assay with MCF7 it was 8.9 µM.

`COc1cc([C@@H]2c3cc4c(cc3[C@@H](NC(=O)Cn3cc(-c5cccc(Cl)c5)nn3)[C@H]3COC(=O)[C@H]23)OCO4)cc(OC)c1OC`: the IC50 with HeLa [1] was 28.4 µM; with B16, 23.6 µM; with HT-29, 17.5 µM; in the assay on MCF7, 38.2 µM.

(Values after ChEMBL document CHEMBL4261551, “Click chemistry-assisted synthesis of triazolo linked podophyllotoxin conjugates as tubulin polymerization inhibitors” (Medchemcomm, 2017).)
